Data reported in patent publication US4683331A, “Omega-(2,4-dihalobiphenylyl) oxo alkanoic acids” (Spofa spojene podniky pro zdravotnickou, priority 1984, dated 1987).

Columns and labels:
Carrageenin edema [1] = conditions: J. Pharm. Sci. Vol. 66 (1977); cited from earlier work
adjuvant arthritis = conditions: J. Pharm. Sci. Vol. 66 (1977); cited from earlier work
in vivo = conditions: acute (short-term) toxicity
Carrageenin edema [2] = experiment: Carrageenin edema; assay type: in vivo; conditions: single dose
Method: (§1) Anti-inflammatory activity is measured according to
(§2) Carrageenin edema and Freund adjuvans edema. The assay for
Carrageenin edema was performed according to J. Winter, Proc.
Soc. Exptl. Biol. Med. Vol. 111 (1962), p 544. Single oral doses
Edema size was evaluated 1, 24, and 48
(§3) hours after administration of each compound. The assay for Free
(§4) after administration of each compound. All of the tabulated
(§5) values are statistically significant (p < 0.05) except for those

Freund adjuvans edema = experiment: Freund adjuvans edema; assay type: in vivo; conditions: single dose
Method: as §1, §2, §3
adjuvans edema was performed according to Z. Horakova and J.
Grimova, Ceskosl. Fys. Vol. 17 (1968), p. 137. Single oral doses
The edema was evaluated 1, and 24 hours
as §4, §5

[3] = 25 mg/kg po, bracketed values not significant
[4] = 10 mg/kg po, bracketed values not significant
[5] = 100 mg/kg po, bracketed values not significant

Structure (SMILES)	activity for Carrageenin edema (Carrageenin edema [1])	percent inhibition for adjuvant arthritis (adjuvant arthritis) [%]	LD50 (in vivo) [mg/kg]	Carrageenin % inhibition 1 hr (Carrageenin edema [2]; [3]) [%]	Carrageenin % inhibition 24 hr (Carrageenin edema [2]; [3]) [%]	Carrageenin % inhibition 48 hr (Carrageenin edema [2]; 25 mg/kg po) [%]	Carrageenin % inhibition 1 hr (Carrageenin edema [2]; 100 mg/kg po) [%]	Carrageenin % inhibition 24 hr (Carrageenin edema [2]; 100 mg/kg po) [%]	Carrageenin % inhibition 48 hr (Carrageenin edema [2]; 100 mg/kg po) [%]	Adjuvans % inhibition 1 hr (Freund adjuvans edema; 10 mg/kg po) [%]	Adjuvans % inhibition 24 hr (Freund adjuvans edema; [4]) [%]	Adjuvans % inhibition 1 hr (Freund adjuvans edema; 25 mg/kg po) [%]	Adjuvans % inhibition 24 hr (Freund adjuvans edema; [3]) [%]	Adjuvans % inhibition 1 hr (Freund adjuvans edema; 100 mg/kg po) [%]	Adjuvans % inhibition 24 hr (Freund adjuvans edema; [5]) [%]	activity for adjuvant arthritis (in words) (adjuvant arthritis)	Adjuvans % inhibition 1 hr (Freund adjuvans edema; 50 mg/kg po) [%]	Adjuvans % inhibition 24 hr (Freund adjuvans edema; 50 mg/kg po) [%]	Adjuvans % inhibition 1 hr (Freund adjuvans edema; 20 mg/kg po) [%]	Adjuvans % inhibition 24 hr (Freund adjuvans edema; 20 mg/kg po) [%]
O=C(O)CCC(=O)c1ccc(-c2ccc(Cl)cc2)cc1 [4'-Cl-fenbufen]	no activity	61	–	–	–	–	–	–	–	–	–	–	–	–	–	–	–	–	–	–
CC(CC(=O)c1ccc(-c2ccc(Cl)cc2Cl)cc1)C(=O)O (stereo not drawn) [Compound 1]	–	–	450	27	54	58	35	73	58	37	38	40	46	45	55	–	–	–	–	–
O=C(O)CCC(=O)c1ccc(-c2ccc(F)cc2)cc1 [4'-F-fenbufen]	1.7	–	–	–	–	–	–	–	–	–	–	–	–	–	–	no activity	–	–	–	–
O=C(O)CCC(=O)c1ccc(-c2ccccc2)cc1 [Compound 4]	–	–	–	40	14	–	46	38	0	27	8	31	9	54	7	–	–	–	–	–
CC(CC(=O)c1ccc(-c2ccc(F)cc2F)cc1)C(=O)O (stereo not drawn) [Compound 2]	–	–	500	30	61	42	44	66	45	–	–	56	32	–	–	–	53	46	–	–
CC(CC(=O)c1ccc(-c2ccc(F)cc2)cc1)C(=O)O (stereo not drawn) [Compound 3]	–	–	500	16	21	–	33	34	–	37	31	–	–	–	–	–	–	–	42	39
